# Experimental data from paper PMC5218480 (PLoS ONE, 2017).
# Tested on: MV-4-11 cells
# Assay: Gene expression microarray analysis (Affymetrix PrimeView) and GSEA
# Type: cell-based, human
# Set-up: RFU PODN (11730768_x_at) / Fold change /veh PODN (11730768_x_at) / RFU LINC00158 (11744669_a_at) / Fold change /veh LINC00158 (11744669_a_at) / RFU DUSP10 (11751237_a_at) / Fold change /veh DUSP10 (11751237_a_at) / RFU ID3 (11757404_x_at) / Fold change /veh ID3 (11757404_x_at) / RFU PLEKHG5 (11737974_s_at) / Fold change /veh PLEKHG5 (11737974_s_at) / RFU LRRC4B (11730491_at) / Fold change /veh LRRC4B (11730491_at) / RFU GIMAP4 (11747438_a_at) / Fold change /veh GIMAP4 (11747438_a_at) / RFU KRT8 (11758183_x_at) / Fold change /veh KRT8 (11758183_x_at) / RFU CNN1 (11734310_a_at) / Fold change /veh CNN1 (11734310_a_at) / RFU VPS37D (11726825_at) / Fold change /veh VPS37D (11726825_at) / RFU C10orf10 (11716522_x_at) / Fold change /veh C10orf10 (11716522_x_at) / RFU KIR2DL2 /// KIR2DL4 /// KIR2DL5A /// KIR2DL5B /// KIR2DS1 /// KIR2DS2 /// KIR2DS3 /// KIR2DS4 /// KIR3DL3 /// KIR3DL3 /// KIR3DS1 (11738374_at) / Fold change /veh KIR2DL2 /// KIR2DL4 /// KIR2DL5A /// KIR2DL5B /// KIR2DS1 /// KIR2DS2 /// KIR2DS3 /// KIR2DS4 /// KIR3DL3 /// KIR3DL3 /// KIR3DS1 (11738374_at) / RFU C1QL1 (11718748_at) / Fold change /veh C1QL1 (11718748_at) / RFU TMPRSS4 (11747572_a_at) / Fold change /veh TMPRSS4 (11747572_a_at) / RFU HAMP (11756126_x_at) / Fold change /veh HAMP (11756126_x_at) / RFU RNFT2 (11725882_a_at) / Fold change /veh RNFT2 (11725882_a_at) / RFU NR4A2 (11747474_a_at) / Fold change /veh NR4A2 (11747474_a_at) / RFU ABCC12 (11746883_a_at) / Fold change /veh ABCC12 (11746883_a_at) / RFU TMEM136 (11760407_x_at) / Fold change /veh TMEM136 (11760407_x_at) / RFU CLDN22 /// WWC2 (11732394_at) / Fold change /veh CLDN22 /// WWC2 (11732394_at) / RFU HLA-DPB1 (11760878_x_at) / Fold change /veh HLA-DPB1 (11760878_x_at) / RFU SPINT1 (11716480_a_at) / Fold change /veh SPINT1 (11716480_a_at) / RFU GAP43 (11754022_s_at) / Fold change /veh GAP43 (11754022_s_at) / RFU A4GNT (11735810_at) / Fold change /veh A4GNT (11735810_at) / RFU PRB3 (11715151_x_at) / Fold change /veh PRB3 (11715151_x_at) / RFU TUBB4B (11761932_at) / Fold change /veh TUBB4B (11761932_at) / RFU CAPN14 (11732068_a_at) / Fold change /veh CAPN14 (11732068_a_at) / RFU TMCC2 (11721928_a_at) / Fold change /veh TMCC2 (11721928_a_at) / RFU IRGQ (11745062_a_at) / Fold change /veh IRGQ (11745062_a_at) / RFU FAM174B (11720279_a_at) / Fold change /veh FAM174B (11720279_a_at) / RFU TMPRSS4 (11748680_a_at) / Fold change /veh TMPRSS4 (11748680_a_at) / RFU FAM212B (11763350_a_at) / Fold change /veh FAM212B (11763350_a_at) / RFU PLEKHG5 (11743358_a_at) / Fold change /veh PLEKHG5 (11743358_a_at) / RFU ZSCAN30 (11745921_a_at) / Fold change /veh ZSCAN30 (11745921_a_at) / RFU CMKLR1 (11741424_a_at) / Fold change /veh CMKLR1 (11741424_a_at) / RFU LOC101060620 /// MAPK8IP1 (11723275_at) / Fold change /veh LOC101060620 /// MAPK8IP1 (11723275_at) / RFU SPTSSB (11747773_x_at) / Fold change /veh SPTSSB (11747773_x_at) / RFU PRSS12 (11739890_at) / Fold change /veh PRSS12 (11739890_at) / RFU BIN1 (11741810_x_at) / Fold change /veh BIN1 (11741810_x_at) / RFU WNT11 (11732464_a_at) / Fold change /veh WNT11 (11732464_a_at) / RFU C10orf10 (11716521_a_at) / Fold change /veh C10orf10 (11716521_a_at) / RFU C5orf56 (11738089_at) / Fold change /veh C5orf56 (11738089_at) / RFU CYB561 (11721691_x_at) / Fold change /veh CYB561 (11721691_x_at) / RFU ANKRD19P (11752326_a_at) / Fold change /veh ANKRD19P (11752326_a_at) / RFU OR2T12 /// OR2T33 /// OR2T8 (11738714_s_at) / Fold change /veh OR2T12 /// OR2T33 /// OR2T8 (11738714_s_at) / RFU VCAN (11748164_a_at) / Fold change /veh VCAN (11748164_a_at) / RFU JSRP1 (11732532_at) / Fold change /veh JSRP1 (11732532_at) / RFU KRTAP10-11 (11738290_x_at) / Fold change /veh KRTAP10-11 (11738290_x_at) / RFU MYO3A (11730013_a_at) / Fold change /veh MYO3A (11730013_a_at) / RFU EBF3 (11725865_a_at) / Fold change /veh EBF3 (11725865_a_at) / RFU CAMK2N1 (11719241_x_at) / Fold change /veh CAMK2N1 (11719241_x_at) / RFU C5orf56 (11738088_a_at) / Fold change /veh C5orf56 (11738088_a_at) / RFU OLFML3 (11715873_a_at) / Fold change /veh OLFML3 (11715873_a_at) / RFU LOC100653217 /// NTM (11731650_a_at) / Fold change /veh LOC100653217 /// NTM (11731650_a_at) / RFU MAPK11 (11762145_a_at) / Fold change /veh MAPK11 (11762145_a_at) / RFU FIZ1 (11724087_x_at) / Fold change /veh FIZ1 (11724087_x_at) / RFU OASL (11726364_x_at) / Fold change /veh OASL (11726364_x_at) / RFU SOX15 (11748057_x_at) / Fold change /veh SOX15 (11748057_x_at) / RFU CD79A (11719716_a_at) / Fold change /veh CD79A (11719716_a_at) / RFU HIST1H1D (11736915_at) / Fold change /veh HIST1H1D (11736915_at) / RFU CASKIN2 (11723855_a_at) / Fold change /veh CASKIN2 (11723855_a_at) / RFU LOC730098 (11760151_x_at) / Fold change /veh LOC730098 (11760151_x_at) / RFU OR4N2 (11742367_at) / Fold change /veh OR4N2 (11742367_at) / RFU PRRT2 (11749266_a_at) / Fold change /veh PRRT2 (11749266_a_at) / RFU SNX32 (11753110_a_at) / Fold change /veh SNX32 (11753110_a_at) / RFU CDHR5 (11726645_a_at) / Fold change /veh CDHR5 (11726645_a_at) / RFU RCAN1 (11760418_a_at) / Fold change /veh RCAN1 (11760418_a_at) / RFU FAM167A (11723789_a_at) / Fold change /veh FAM167A (11723789_a_at) / RFU FAM26E (11764081_at) / Fold change /veh FAM26E (11764081_at) / RFU ISYNA1 (11749810_s_at) / Fold change /veh ISYNA1 (11749810_s_at) / RFU ACY1 (11761880_at) / Fold change /veh ACY1 (11761880_at) / RFU 11764098_at / Fold change /veh 11764098_at / RFU SAMD14 (11745864_x_at) / Fold change /veh SAMD14 (11745864_x_at) / RFU NPB (11741838_a_at) / Fold change /veh NPB (11741838_a_at) / RFU TMPRSS6 (11731388_a_at) / Fold change /veh TMPRSS6 (11731388_a_at) / RFU KRTAP10-2 (11738614_at) / Fold change /veh KRTAP10-2 (11738614_at) / RFU ARHGAP8 /// PRR5-ARHGAP8 (11727945_x_at) / Fold change /veh ARHGAP8 /// PRR5-ARHGAP8 (11727945_x_at) / RFU KRTAP5-7 /// NADSYN1 (11734609_at) / Fold change /veh KRTAP5-7 /// NADSYN1 (11734609_at) / RFU RASL12 (11751679_a_at) / Fold change /veh RASL12 (11751679_a_at) / RFU CDKN2B (11736163_a_at) / Fold change /veh CDKN2B (11736163_a_at) / RFU PRF1 (11729649_at) / Fold change /veh PRF1 (11729649_at) / RFU, ZNF638 /// ZNF638-IT1 / Fold change vs veh, ZNF638 /// ZNF638-IT1 / RFU, PANK3 / Fold change vs veh, PANK3 / RFU, SH3YL1 / Fold change vs veh, SH3YL1 / RFU, ZEB2 / Fold change vs veh, ZEB2 / RFU, NRIP1 / Fold change vs veh, NRIP1 / RFU, PTTG1IP / Fold change vs veh, PTTG1IP / RFU, CAPN2 / Fold change vs veh, CAPN2 / RFU, MED14 / Fold change vs veh, MED14 / RFU, SNORA58 / Fold change vs veh, SNORA58 / RFU, C1orf63 / Fold change vs veh, C1orf63 / RFU, LRRFIP1 / Fold change vs veh, LRRFIP1 / RFU, NDUFAF7 / Fold change vs veh, NDUFAF7 / RFU, SLC12A2 / Fold change vs veh, SLC12A2 / RFU, IBTK / Fold change vs veh, IBTK / RFU, ESF1 / Fold change vs veh, ESF1 / Fold change vs veh, TMEM50B / RFU, TAOK1 / Fold change vs veh, TAOK1 / RFU, ACBD3 / Fold change vs veh, ACBD3 / RFU, TMA16 / Fold change vs veh, TMA16 / RFU, RWDD3 / Fold change vs veh, RWDD3 / RFU, BCAT1 / Fold change vs veh, BCAT1 / RFU, EDEM3 / Fold change vs veh, EDEM3 / RFU, TMEM33 / Fold change vs veh, TMEM33 / RFU, WDR75 / Fold change vs veh, WDR75 / RFU, AHCTF1 / Fold change vs veh, AHCTF1 / RFU, TFRC / Fold change vs veh, TFRC / RFU, ZDHHC17 / Fold change vs veh, ZDHHC17 / RFU, NOM1 / Fold change vs veh, NOM1 / RFU, ARL8B / Fold change vs veh, ARL8B / RFU, ZBTB11 / Fold change vs veh, ZBTB11 / RFU, TAMM41 / Fold change vs veh, TAMM41 / RFU, KIAA1704 /// LOC100996395 / Fold change vs veh, KIAA1704 /// LOC100996395 / RFU, ING1 / Fold change vs veh, ING1 / RFU, TRMT61B / Fold change vs veh, TRMT61B / RFU, FUBP3 / Fold change vs veh, FUBP3 / RFU, TP53 / Fold change vs veh, TP53 / RFU, TNKS2 / Fold change vs veh, TNKS2 / RFU, ZFP14 / Fold change vs veh, ZFP14 / RFU, ACTR2 / Fold change vs veh, ACTR2 / RFU, PPP3R1 / Fold change vs veh, PPP3R1 / RFU, PIK3R1 / Fold change vs veh, PIK3R1 / RFU, HNRNPA1 / Fold change vs veh, HNRNPA1 / RFU, RNF170 / Fold change vs veh, RNF170 / RFU, ZNF28 / Fold change vs veh, ZNF28 / RFU, RNGTT / Fold change vs veh, RNGTT / RFU, OGT / Fold change vs veh, OGT / RFU, BRD1 / Fold change vs veh, BRD1 / RFU, MARS / Fold change vs veh, MARS / RFU, ZNF655 / Fold change vs veh, ZNF655 / RFU, FAHD1 / Fold change vs veh, FAHD1 / RFU, BDP1 / Fold change vs veh, BDP1 / RFU, LRRCC1 / Fold change vs veh, LRRCC1 / RFU, ARID1A / Fold change vs veh, ARID1A / RFU, ZNF146 / Fold change vs veh, ZNF146 / RFU, ZNF330 / Fold change vs veh, ZNF330 / RFU, GPN3 / Fold change vs veh, GPN3 / RFU, C9orf123 / Fold change vs veh, C9orf123 / RFU, N4BP2L2 / Fold change vs veh, N4BP2L2 / RFU, ARFIP1 / Fold change vs veh, ARFIP1 / RFU, FAM179B / Fold change vs veh, FAM179B / RFU, BCL10 / Fold change vs veh, BCL10 / RFU, UHRF1BP1L / Fold change vs veh, UHRF1BP1L / RFU, BET1 / Fold change vs veh, BET1 / RFU, CNOT2 / Fold change vs veh, CNOT2 / RFU, ZNF268 / Fold change vs veh, ZNF268 / Fold change vs veh, ZNF507 / RFU, DGCR2 / Fold change vs veh, DGCR2 / RFU, WDSUB1 / Fold change vs veh, WDSUB1 / Fold change vs veh, HSP90B1 /// MIR3652 / RFU, ADSS / Fold change vs veh, ADSS / RFU, GK / Fold change vs veh, GK / RFU, ZNF148 / Fold change vs veh, ZNF148 / RFU, TAF9 / Fold change vs veh, TAF9 / RFU, SLC1A5 / Fold change vs veh, SLC1A5 / RFU, SLMO2 / Fold change vs veh, SLMO2 / RFU, ABCC4 / Fold change vs veh, ABCC4 / RFU, LOC101060439 /// RAP1B / Fold change vs veh, LOC101060439 /// RAP1B / RFU, RFX7 / Fold change vs veh, RFX7 / RFU, GTPBP10 / Fold change vs veh, GTPBP10 / RFU, CNEP1R1 / Fold change vs veh, CNEP1R1 / RFU, BIVM-ERCC5 /// ERCC5 / Fold change vs veh, BIVM-ERCC5 /// ERCC5 / RFU, ILF3 / Fold change vs veh, ILF3 / RFU 11762660_at / Fold change /veh 11762660_at / RFU VCAN (11757783_s_at) / Fold change /veh VCAN (11757783_s_at) / RFU DDX43 (11728927_at) / Fold change /veh DDX43 (11728927_at) / RFU KRT8 (11758188_x_at) / Fold change /veh KRT8 (11758188_x_at) / RFU NKD1 (11759106_at) / Fold change /veh NKD1 (11759106_at) / RFU SRD5A1 (11742802_a_at) / Fold change /veh SRD5A1 (11742802_a_at) / RFU TPSAB1 /// TPSB2 (11721975_s_at) / Fold change /veh TPSAB1 /// TPSB2 (11721975_s_at) / RFU GSTM3 (11746129_a_at) / Fold change /veh GSTM3 (11746129_a_at) / RFU IL23R (11737362_x_at) / Fold change /veh IL23R (11737362_x_at) / RFU TMEM51 (11727254_a_at) / Fold change /veh TMEM51 (11727254_a_at) / RFU PIWIL2 (11732686_x_at) / Fold change /veh PIWIL2 (11732686_x_at) / RFU ORM1 (11744905_x_at) / Fold change /veh ORM1 (11744905_x_at) / RFU CCDC152 (11743942_at) / Fold change /veh CCDC152 (11743942_at) / RFU ECM1 (11717891_a_at) / Fold change /veh ECM1 (11717891_a_at) / RFU IL23R (11748794_a_at) / Fold change /veh IL23R (11748794_a_at) / RFU TNFAIP8L3 (11732012_x_at) / Fold change /veh TNFAIP8L3 (11732012_x_at) / RFU MBOAT4 (11741988_at) / Fold change /veh MBOAT4 (11741988_at) / RFU 11764193_at / Fold change /veh 11764193_at / RFU TMEM53 (11763286_at) / Fold change /veh TMEM53 (11763286_at) / RFU MAGEB2 (11727129_at) / Fold change /veh MAGEB2 (11727129_at) / RFU TMEM200A (11744735_a_at) / Fold change /veh TMEM200A (11744735_a_at) / RFU CCDC152 (11751479_a_at) / Fold change /veh CCDC152 (11751479_a_at) / RFU FAM211A (11726209_a_at) / Fold change /veh FAM211A (11726209_a_at) / RFU RGS16 (11746705_a_at) / Fold change /veh RGS16 (11746705_a_at) / RFU VCAN (11755009_s_at) / Fold change /veh VCAN (11755009_s_at) / RFU RHOB (11743442_s_at) / Fold change /veh RHOB (11743442_s_at) / RFU RGS16 (11720943_a_at) / Fold change /veh RGS16 (11720943_a_at) / RFU RGS16 (11720944_at) / Fold change /veh RGS16 (11720944_at) / RFU, VPS4B / Fold change vs veh, VPS4B / RFU, CREB1 / Fold change vs veh, CREB1 / RFU, DNAJC13 / Fold change vs veh, DNAJC13 / RFU, GNAQ / Fold change vs veh, GNAQ / RFU, CDK5R1 / Fold change vs veh, CDK5R1 / RFU, ZRANB3 / Fold change vs veh, ZRANB3 / RFU, CUL4A / Fold change vs veh, CUL4A / RFU, CCNY / Fold change vs veh, CCNY / RFU, UFL1 / Fold change vs veh, UFL1 / RFU, COG3 / Fold change vs veh, COG3 / RFU, DIAPH2 / Fold change vs veh, DIAPH2 / RFU, SKA2 / Fold change vs veh, SKA2 / RFU, AFF3 / Fold change vs veh, AFF3 / RFU, LMF1 / Fold change vs veh, LMF1 / RFU, IPO11 / Fold change vs veh, IPO11 / RFU, DFFB / Fold change vs veh, DFFB / RFU, FOXP1 / Fold change vs veh, FOXP1 / RFU, CARD8 / Fold change vs veh, CARD8 / RFU, STRN3 / Fold change vs veh, STRN3 / RFU, ADK / Fold change vs veh, ADK / RFU, RASSF2 / Fold change vs veh, RASSF2 / RFU, WIPF1 / Fold change vs veh, WIPF1 / RFU, LARP1B / Fold change vs veh, LARP1B / RFU, RASA1 / Fold change vs veh, RASA1 / RFU, RB1 / Fold change vs veh, RB1 / RFU, PPFIA1 / Fold change vs veh, PPFIA1 / RFU, MAT2A / Fold change vs veh, MAT2A / RFU, CCT5 / Fold change vs veh, CCT5 / RFU, WDR92 / Fold change vs veh, WDR92 / RFU, CUX1 / Fold change vs veh, CUX1 / RFU, TTC7A / Fold change vs veh, TTC7A / RFU, TMEM135 / Fold change vs veh, TMEM135 / RFU, DEPTOR / Fold change vs veh, DEPTOR / RFU, CPM / Fold change vs veh, CPM / RFU, DNAJB6 / Fold change vs veh, DNAJB6 / RFU, CACNA2D3 / Fold change vs veh, CACNA2D3 / RFU, DTX4 / Fold change vs veh, DTX4 / RFU, TFCP2 / Fold change vs veh, TFCP2 / RFU, GMCL1 /// GMCL1P1 / Fold change vs veh, GMCL1 /// GMCL1P1 / RFU, AEBP2 / Fold change vs veh, AEBP2 / RFU, SNHG1 /// SNORD22 /// SNORD25 /// SNORD26 /// SNORD27 /// SNORD28 /// SNORD29 /// SNORD31 / Fold change vs veh, SNHG1 /// SNORD22 /// SNORD25 /// SNORD26 /// SNORD27 /// SNORD28 /// SNORD29 /// SNORD31 / Fold change (Aza/veh), C12orf56 (ProbeSet 11735607_a_at) / Fold change (ACY-1035/veh), C12orf56 (ProbeSet 11735607_a_at) / Fold change (Aza/veh), FGFR1OP (ProbeSet 11751329_s_at) / Fold change (ACY-1035/veh), FGFR1OP (ProbeSet 11751329_s_at) / Fold change (Aza/veh), VPS36 (ProbeSet 11739960_a_at) / Fold change (ACY-1035/veh), VPS36 (ProbeSet 11739960_a_at) / RFU SYPL1 (11715823_x_at) / Fold change /veh SYPL1 (11715823_x_at) / RFU IGFBP7 (11715501_s_at) / Fold change /veh IGFBP7 (11715501_s_at) / RFU REEP3 (11722064_at) / Fold change /veh REEP3 (11722064_at) / RFU IGLL1 (11728026_x_at) / Fold change /veh IGLL1 (11728026_x_at): dose or concentration left out as unconfirmed
# Conditions: MV-4-11 cells, 48 hours
compound,measurement,value
Nc1ncn([C@@H]2O[C@H](CO)[C@@H](O)[C@H]2O)c(=O)n1 [azacitidine],RFU SRD5A1 (11742802_a_at),51.32 RFU
